Target: T1, TcTRPA1 (Tribolium castaneum, UniProt A0A139WJZ5)
T1 sequence (A0A139WJZ5 1-1242): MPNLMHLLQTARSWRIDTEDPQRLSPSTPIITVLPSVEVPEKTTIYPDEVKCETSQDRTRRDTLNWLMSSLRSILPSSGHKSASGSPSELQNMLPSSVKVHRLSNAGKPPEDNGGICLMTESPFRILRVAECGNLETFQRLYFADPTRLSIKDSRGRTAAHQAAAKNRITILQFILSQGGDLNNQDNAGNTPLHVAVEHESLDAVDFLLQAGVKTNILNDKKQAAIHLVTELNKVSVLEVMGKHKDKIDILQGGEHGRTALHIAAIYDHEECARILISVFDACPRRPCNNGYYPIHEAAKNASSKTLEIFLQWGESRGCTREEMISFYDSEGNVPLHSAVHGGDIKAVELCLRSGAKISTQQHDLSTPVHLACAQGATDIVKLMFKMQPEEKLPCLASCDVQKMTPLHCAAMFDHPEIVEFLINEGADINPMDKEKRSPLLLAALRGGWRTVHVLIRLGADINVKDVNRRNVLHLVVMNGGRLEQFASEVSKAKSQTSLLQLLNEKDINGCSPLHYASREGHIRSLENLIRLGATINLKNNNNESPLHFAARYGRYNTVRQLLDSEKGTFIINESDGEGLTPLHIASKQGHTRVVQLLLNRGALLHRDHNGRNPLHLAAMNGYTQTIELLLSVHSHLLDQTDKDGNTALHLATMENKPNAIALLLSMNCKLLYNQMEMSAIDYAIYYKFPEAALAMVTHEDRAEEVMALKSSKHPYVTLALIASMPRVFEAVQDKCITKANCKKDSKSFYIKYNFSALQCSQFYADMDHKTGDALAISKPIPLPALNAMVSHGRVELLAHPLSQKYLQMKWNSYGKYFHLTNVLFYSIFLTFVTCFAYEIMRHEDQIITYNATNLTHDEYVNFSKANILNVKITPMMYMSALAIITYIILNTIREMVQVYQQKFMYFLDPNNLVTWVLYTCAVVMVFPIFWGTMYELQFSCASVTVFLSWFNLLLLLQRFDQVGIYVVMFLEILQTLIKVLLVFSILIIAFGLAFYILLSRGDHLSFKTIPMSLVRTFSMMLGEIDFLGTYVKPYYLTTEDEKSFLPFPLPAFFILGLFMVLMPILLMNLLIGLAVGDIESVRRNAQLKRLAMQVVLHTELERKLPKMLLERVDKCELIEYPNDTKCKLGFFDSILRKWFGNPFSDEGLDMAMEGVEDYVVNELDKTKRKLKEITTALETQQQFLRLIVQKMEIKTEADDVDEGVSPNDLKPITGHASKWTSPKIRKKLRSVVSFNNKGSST
Assay: Ca2+ influx fluorescence assay
Format: cell-based

Question: Which EC50 does the source give for `CC(C)=CCCC(C)CC=O` (stereo not shown) [citronellal] here?
Answer: Its EC50 is 69.7 µM.

Reference: publication PMC10407194 (Current Research in Insect Science, 2023)
